Source: US20040258754A1, “Compositions for oral administration of camptothecin and its analogs” (priority 2003, published 2004)
Values after ≈ are worked out from the molar mass of the structure shown. Where two headings read alike, the source gives them in different places.

Experiments:
[1] = Stability of topotecan lactone in Pluronic P85 formulation (HPLC); type: physicochemical; conditions: 37° C., 0.3 mg/mL drug in PBS
Experimental: The formulation was prepared by mixing the stock solution containing 6 mg/mL of topotecan in 0.1% aqueous acetic acid with the 2.05% P85 solutions in PBS 1:20 (v/v), to obtain final compositions containing 0.3 mg/mL drug in 1% P85. The control formulation was prepared by simple dilution of topotecan stock solution with PBS 1:20 (v/v). The initial time of incubation (O hour) is the time of mixing of the respective stock solutions. The samples were incubated at 37° C. in thermostat. After various time intervals (1, 2, 3, 6, and 10 hrs) […], a sample of formulation was taken, diluted 1000 times with the HPLC mobile phase, and injected into HPLC. The HPLC conditions were following:
(§1) C18 reversed phase column 250×4.6 mm, Phenomenex C18 (2) Luna, 5 μm, column temperature 40° C., flow rate 1 mL/min, injection volume 20 μL, fluorescence detection at wavelengths λexcitation=381 nm, λemission=525 nm, mobile phase 94% of 2% triethylamine acetate pH 5.5/6% acetonitrile, run time 7 min

[2] = Partitioning of topotecan into Pluronic F127 micelles (fluorescence); type: physicochemical; conditions: Pluronic F127 micelles vs aqueous phase, carrier 0.003% to 10%, topotecan 0.010 mM, 2 hrs at 37° C.
Source text: Partitioning coefficient P describes the tendency of molecules of topotecan to stay inside micelles formed by the carrier: P=[x]m/[x]w, where [x]m is the actual concentration of topotecan inside micelles, [x]w is the actual concentration of topotecan in aqueous phase. The carrier investigated in this example is pluronic F127 (BASF). Partitioning coefficient was estimated using the fluorescence dependence on the concentration of the carrier (Kabanov A. et al. (1995), Macromolecules 28, 2303-2314), by fitting the measured fluorescence of topotecan to the equation:
(Imax−I0)/(−I0)−1=1/(θP)−1/P
θ=0.01v([carrier]−CMCcarrier), volume portion of the micellar phase
CMCcarrier=0.02%—critical micelle concentration for Pluronic 127
v—partial specific volume of micelles, approximately v=0.8
[…]. The plate was dried in vacuum. Solutions of the carrier were applied to wells, 300 microliter to each well. The concentration of carrier in solutions varied from 0.003% to 10%. The final concentration of topotecan was 0.010 mM. The plate was incubated 2 hrs at 37° C., and the fluorescence of the solution (excitation 360 nm, emission 530 nm) was measured using plate reader FL600 (BioTek).

[3] = Oral administration of topotecan in capsules (control, microgel, microgel + L92); type: in vivo, rats
Experimental: (§2) About 30 mg of topotecan were weighed and mixed with 100 mg of the microgel. The mixture was dissolved in 5 mL of 70% ethanol and incubated for 16 hours at room temperature. Then, the half volume of solvent was evaporated in a stream of nitrogen. About 10 mL of 3% acetic acid were added to the mixture. The final mixture was lyophilized until dryness and loaded into the gelatin capsules.
About 30 mg of topotecan were weighed and loaded in gelatin capsules (3.75 mg/capsule).
The control and formulated topotecan in capsules were orally administered in normal rats at the dose of 15 mg/kg. The blood sample collection, extraction and HPLC analysis were the same as described in example 8.
as §2, with “microgel EGDMA and 30 mg of L92.” for “the microgel.”, “capsules. The topotecan formulation in capsules was orally administered in normal rats at the dose of 15 mg/kg. The blood sample collection, the extraction and HPLC analysis procedures were the same as in example 8.” for “capsules.”

[4] = Plasma pharmacokinetics of topotecan upon i.v. administration; type: in vivo; conditions: normal rats, dose of 15 mg/mL
Experimental: About 28 mg of topotecan were weighed and dissolved in 7 mL of isotonic solution. Topotecan was i.v. administered in normal rats at a dose of […].
(§3) After various time intervals (15, 30 min, 1, 3, 6, and 10 hrs) post-injection, the blood samples were collected.
The blood samples were collected from the jugular vein with the tube heparinized and kept immediately in ice for 5 to 10 min. Blood was immediately centrifuged, and plasma was separated. The plasma samples were immediately frozen in dry ice and stored at −80° C. until further use.
The aliquots (100 μL) of plasma samples were extracted with 400 μL of cold methanol. The supernatant was separated by centrifugation at 10000 RPM for 10 minutes and kept at −80° C. before HPLC analysis. The HPLC conditions were the following:
as §1
The topotecan lactone and topotecan carboxilate concentrations were calculated from the area under the peak (AUP) by using a calibration curve. The areas under the curves (AUC) were calculated by trapezoidal rule.

[5] = Solubility of topotecan in formulations with Pluronic P85; type: physicochemical; conditions: thermodynamic from solid, read-out: Topotecan concentration (solubility)
Experimental: Calibration. Fluorescence of 0.300 mL samples of topotecan solutions in methanol containing between 0.00006 and 0.001 mg/mL, in triplicates on Helma Quarz plate, was measured using Bio-Tek FL600 fluorescence plate reader with excitation filter wavelength/bandwidth 360/40 nm and emission filter 530/25 nm, sensitivity 70. The average fluorescence was fitted to a linear equation and gave:
where C=topotecan concentration [mg/mL].
Solubility. 1 mg topotecan samples, in triplicates, and 1 mL of the respective buffer or carrier solution, were incubated at room temperature with shaking for 1 hour. The samples were then filtered through Acrodisc CR, PTFE Syringe filter, 4 mm diameter, 0.45 μm pore size Gelman part No. 4472. The filtrate was diluted 100 times with methanol, and the final concentration of topotecan was determined by fluorescence measurement using the above-described calibration.

[6] = Oral bioavailability of Pluronic P85 formulated and unformulated topotecan (gavage); type: in vivo; conditions: normal rats, oral gavage of solution, 15 mg/kg, plasma
Experimental: About 15 mg of topotecan were weighed and dissolved in 5 mL of tap water for control, and about 15 mg of topotecan were dissolved in 5 mL of 1% P85 solution in tap water for formulation;
Both topotecan dosing solutions were orally administered by gavage in normal rats at a dose of 15 mg/kg. Three animals were used per each group.
as §3
The rats were anesthetized by general inhalation of Isoflurane (Bimeta-MTC, Animal Health Inc. Cambridge, ON, Canada).
The plasma sample collection, extraction and HPLC analysis were carried out with the same matter as is described in example 8.
The topotecan lactone and topotecan carboxylate concentrations were calculated from the area under the peak (AUP) by using a calibration curve. The areas under the curves (AUC) were calculated by trapezoidal rule.

[7] = normal rats, oral gelatin capsules, 15 mg/kg, plasma

CC[C@@]1(O)C(=O)OCc2c1cc1n(c2=O)Cc2cc3c(CN(C)C)c(O)ccc3nc2-1 [Topotecan, topotecan]
topotecan lactone stability ([1]; 0 hour): 100.0 % of 0 h | topotecan lactone stability ([1]; 1 hour): 76.0 % of 0 h | topotecan lactone stability ([1]; 2 hours): 56.4 % of 0 h | topotecan lactone stability ([1]; 3 hours): 49.7 % of 0 h | topotecan lactone stability ([1]; 6 hours): 45.9 % of 0 h | topotecan lactone stability ([1]; 10 hours): 44.8 % of 0 h | partitioning coefficient P=[x]m/[x]w [2]: about 1 | AUC Ratio Oral Vs I.V. ([3]; Lac/Car AUC ratio, oral capsules 15 mg/kg vs i.v., rats): 2.0 | Cmax Ratio Oral Vs I.V. ([3]; Lac/Car Cmax ratio, oral capsules 15 mg/kg vs i.v., rats): 2.0 | Ratio AUC0-10 h Lac/Car [3, 7]: 0.6 | Ratio Cmax Lac/Car [3, 7]: 0.8 | AUC(0-t) ([3]; rat, normal rats, oral gelatin capsules, 15 mg/kg, plasma, read-out: AUC0-10 h, topotecan Lactone): 52.8 ng·h/mL | Cmax ([3]; rat, normal rats, oral gelatin capsules, 15 mg/kg, plasma, read-out: Cmax, topotecan Lactone): 9.8 ng/mL | Ratio AUC0-10 h Lac/Car [4]: 0.3 | Ratio Cmax Lac/Car [4]: 0.4 | AUC(0-t) ([4]; rat, iv, read-out: AUC0-10 h, topotecan Lactone): 454 ng·h/mL | Cmax ([4]; rat, iv, read-out: Cmax, topotecan Lactone): 321 ng/mL | solubility at 1 h ([5]; 1% Pluronic P85 in PBS, aqueous with cosolvent or surfactant or cyclodextrin, P85 1% in PBS pH 7.2, room temperature): 95 ± 5 µg/mL (≈ 225 µM) | solubility at 1 h ([5]; 3% Pluronic P85 in PBS, aqueous with cosolvent or surfactant or cyclodextrin, P85 3% in PBS pH 7.2, room temperature): 105 ± 5 µg/mL (≈ 249 µM) | solubility at 1 h ([5]; aqueous buffer, PBS pH 7.2, room temperature): 62 ± 5 µg/mL (≈ 147 µM) | Ratio AUC0-10 h Lac/Car [6]: 1.2 | Ratio Cmax Lac/Car [6]: 1.2 | AUC(0-t) ([6]; rat, read-out: AUC0-10 h, topotecan Lactone): 80.5 ng·h/mL | Cmax ([6]; rat, read-out: Cmax, topotecan Lactone): 20.3 ng/mL
